In patent US20060069132A1, “Azolecarboxamide herbicides” (priority 2004, published 2006):

Legend:
corn = assay: Test B pre-/postemergence herbicide test; format: in vivo, Zea mays
How it was run: (§1)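 Visual rating, 0 (no effect) to 100 (complete control), versus untreated controls after 13–15 d in greenhouse. Pre- and postemergence applications (postemergence plants 2–18 cm, 1–4 leaves); flooded paddy arm at 2-leaf stage. Compounds in non-phytotoxic solvent plus surfactant.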

ducksalad = assay: Test B flooded paddy test; format: in vivo, Heteranthera limosa; conditions: 1000 g ai/ha, visual rating, scale 0 to 100 (0 no effect, 100 complete control), 13 to 15 days
How it was run: (§2)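 Visual ratings, 0 (no effect) to 100 (complete control), made versus controls after 13–15 d greenhouse. Paddy plants treated at 2-leaf stage; postemergence plants at 1- to 4-leaf stage, 2–18 cm tall.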

giant foxtail = assay: Test B pre-/postemergence herbicide test; format: in vivo, Setaria faberi
How it was run: as §1

cocklebur = assay: Test B pre-/postemergence herbicide test; format: in vivo, Xanthium strumarium
How it was run: as §1

barnyardgrass [1] = assay: Test B flooded paddy test; format: in vivo, Echinochloa crus-galli; conditions: 1000 g ai/ha, visual rating, scale 0 to 100 (0 no effect, 100 complete control), 13 to 15 days
How it was run: as §2

barnyardgrass [2] = assay: Test B pre-/postemergence herbicide test; format: in vivo, Echinochloa crus-galli
How it was run: as §1

blackgrass = assay: Test B postemergence herbicide test; format: in vivo, Alopecurus myosuroides; conditions: scale 0 (no effect) to 100 (complete control); for Plant response rating, Blackgrass: Postemergence, 500 g ai/ha, visual rating after 13 to 15 days; for Blackgrass plant response rating: postemergence, 125 g ai/ha, visual rating
How it was run: as §2

wheat = assay: Test B postemergence herbicide test; format: in vivo, Triticum aestivum; set-up: key to Wheat plant response rating: 0 = no effect, 100 = complete control; conditions: scale 0 (no effect) to 100 (complete control); for Plant response rating, Wheat: Postemergence, 500 g ai/ha, visual rating after 13 to 15 days; for Wheat plant response rating: postemergence, 125 g ai/ha, visual rating
How it was run: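 Treated at 2-leaf (paddy) or 1–4-leaf, 2–18 cm (postemergence); greenhouse 13–15 d; visual score vs control, 0 none to 100 complete control; dash = not tested.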

Surinam grass = assay: Test B pre-/postemergence herbicide test; format: in vivo, Urochloa decumbens; conditions: for Surinam Grass plant response rating: postemergence, visual rating
How it was run: as §1

large crabgrass = assay: Test B pre-/postemergence herbicide test; format: in vivo, Digitaria sanguinalis
How it was run: as §1

lambsquarters = assay: Test B pre-/postemergence herbicide test; format: in vivo, Chenopodium album; conditions: for Lambsquarters plant response rating: postemergence, visual rating
How it was run: as §1

velvetleaf = assay: Test B pre-/postemergence herbicide test; format: in vivo, Abutilon theophrasti; conditions: for Velvetleaf plant response rating: postemergence, visual rating
How it was run: as §1

rice = assay: Test B flooded paddy test; format: in vivo, Oryza sativa; conditions: 1000 g ai/ha, visual rating, scale 0 to 100 (0 no effect, 100 complete control), 13 to 15 days
How it was run: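 Read-out: visual comparison with controls, scored 0 to 100, where 100 means complete control and 0 no effect. Formulated chemicals were applied postemergence to plants 2–18 cm tall (1- to 4-leaf), or to flooded-paddy plants at the 2-leaf stage, then held 13 to 15 days under glass.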

morningglory = assay: Test B pre-/postemergence herbicide test; format: in vivo, Ipomoea coccinea; conditions: for Morningglory plant response rating: postemergence, visual rating
How it was run: as §1

[3] = test system: small flower umbrella sedge; assay: Test B flooded paddy test; format: in vivo, Cyperus difformis; conditions: 1000 g ai/ha, visual rating, scale 0 to 100 (0 no effect, 100 complete control), 13 to 15 days
How it was run: as §2

[4] = Postemergence, 500 g ai/ha, visual rating after 13 to 15 days, scale 0 (no effect) to 100 (complete control)
[5] = Preemergence, 500 g ai/ha, scale 0 to 100
[6] = postemergence, 125 g ai/ha, visual rating, scale 0 (no effect) to 100 (complete control)
[7] = preemergence, 125 g ai/ha, 0 to 100 scale, 0 is no effect, 100 is complete control
[8] = 125 g ai/ha, scale 0 (no effect) to 100 (complete control)
[9] = 500 g ai/ha, visual rating 0-100, 0 no effect, 100 complete control, preemergence

C=CCOC(=O)c1cccc(NC(=O)c2cc(C(C)(C)C)nn2CC)c1 [Compound 85]
100: Plant response rating, Cocklebur (cocklebur; [4]) | Plant response rating, Morningglory (morningglory; [4])
60: Barnyardgrass plant response rating (barnyardgrass [2]; [6]) | Plant response rating, Wheat (wheat) | Surinam Grass plant response rating (Surinam grass; [8]) | Plant response rating, Lambsquarters (lambsquarters; [4]) | Velvetleaf plant response rating (velvetleaf; [8]) | Sedge, Umbrella plant response rating [3]
70: Plant response rating, Surinam Grass (Surinam grass; [4])
50: Plant response rating, Foxtail, Giant (giant foxtail; [4]) | Wheat plant response rating (wheat) | Crabgrass, Large plant response rating (large crabgrass; [6]) | Lambsquarters plant response rating (lambsquarters; [8]) | Morningglory plant response rating (morningglory; [8])
40: Barnyardgrass plant response rating (barnyardgrass [1]) | Rice plant response rating (rice)
20: Corn plant response rating (corn; [6]) | Ducksalad plant response rating (ducksalad) | Foxtail, Giant plant response rating (giant foxtail; [6]) | Plant response rating, Blackgrass (blackgrass)
30: Plant response rating, Corn (corn; [4])
10: Blackgrass plant response rating (blackgrass)
90: Cocklebur plant response rating (cocklebur; [6])
0: Corn plant response rating (corn; [5]) | Plant response rating, Corn (corn; [7]) | Foxtail, Giant plant response rating (giant foxtail; [5]) | Plant response rating, Foxtail, Giant (giant foxtail; [7]) | Cocklebur plant response rating (cocklebur; [5]) | Plant response rating, Cocklebur (cocklebur; [7]) | Barnyardgrass plant response rating (barnyardgrass [2]; [5]) | Plant response rating, Barnyardgrass (barnyardgrass [2]; [7]) | Plant response rating, Surinam Grass (Surinam grass; [7]) | Crabgrass, Large plant response rating (large crabgrass; [5]) | Plant response rating, Crabgrass, Large (large crabgrass; [7]) | Plant response rating, Lambsquarters (lambsquarters; [7]) | Plant response rating, Velvetleaf (velvetleaf; [7]) | Plant response rating, Morningglory (morningglory; [7])
80: Plant response rating, Barnyardgrass (barnyardgrass [2]; [4]) | Plant response rating, Crabgrass, Large (large crabgrass; [4]) | Plant response rating, Velvetleaf (velvetleaf; [4])

CC(=NO)c1cccc(NC(=O)c2cc(C(C)(C)C)nn2C)c1 [Compound 102]
100: Plant response rating, Surinam Grass (Surinam grass; [4]) | Plant response rating, Crabgrass, Large (large crabgrass; [9]) | Plant response rating, Crabgrass, Large (large crabgrass; [7]) | Plant response rating, Lambsquarters (lambsquarters; [9]) | Plant response rating, Lambsquarters (lambsquarters; [7]) | Plant response rating, Morningglory (morningglory; [9]) | Sedge, Umbrella plant response rating [3]
40: Plant response rating, Corn (corn; [4]) | Plant response rating, Barnyardgrass (barnyardgrass [2]; [4]) | Plant response rating, Surinam Grass (Surinam grass; [9])
50: Plant response rating, Corn (corn; [9]) | Plant response rating, Cocklebur (cocklebur; [4]) | Rice plant response rating (rice) | Plant response rating, Morningglory (morningglory; [7])
30: Plant response rating, Foxtail, Giant (giant foxtail; [4]) | Plant response rating, Foxtail, Giant (giant foxtail; [7]) | Cocklebur plant response rating (cocklebur; [6]) | Plant response rating, Morningglory (morningglory; [4])
20: Corn plant response rating (corn; [6]) | Plant response rating, Blackgrass (blackgrass) | Plant response rating, Wheat (wheat) | Plant response rating, Surinam Grass (Surinam grass; [7]) | Plant response rating, Lambsquarters (lambsquarters; [4]) | Plant response rating, Velvetleaf (velvetleaf; [4])
80: Plant response rating, Foxtail, Giant (giant foxtail; [9]) | Barnyardgrass plant response rating (barnyardgrass [1]) | Plant response rating, Barnyardgrass (barnyardgrass [2]; [7])
0: Plant response rating, Corn (corn; [7]) | Plant response rating, Cocklebur (cocklebur; [9]) | Plant response rating, Cocklebur (cocklebur; [7]) | Barnyardgrass plant response rating (barnyardgrass [2]; [6]) | Blackgrass plant response rating (blackgrass) | Wheat plant response rating (wheat) | Velvetleaf plant response rating (velvetleaf; [8]) | Plant response rating, Velvetleaf (velvetleaf; [7])
90: Ducksalad plant response rating (ducksalad) | Plant response rating, Barnyardgrass (barnyardgrass [2]; [9])
10: Foxtail, Giant plant response rating (giant foxtail; [6]) | Crabgrass, Large plant response rating (large crabgrass; [6]) | Lambsquarters plant response rating (lambsquarters; [8]) | Morningglory plant response rating (morningglory; [8])
70: Surinam Grass plant response rating (Surinam grass; [8]) | Plant response rating, Crabgrass, Large (large crabgrass; [4]) | Plant response rating, Velvetleaf (velvetleaf; [9])

CCn1nc(C(C)(C)C)cc1C(=O)Nc1cccc(C(C)=NO)c1 [Compound 108]
10: Corn plant response rating (corn; [6]) | Plant response rating, Corn (corn; [7]) | Foxtail, Giant plant response rating (giant foxtail; [6]) | Plant response rating, Cocklebur (cocklebur; [7]) | Barnyardgrass plant response rating (barnyardgrass [2]; [6]) | Wheat plant response rating (wheat) | Plant response rating, Surinam Grass (Surinam grass; [4]) | Surinam Grass plant response rating (Surinam grass; [8])
80: Barnyardgrass plant response rating (barnyardgrass [1]) | Plant response rating, Barnyardgrass (barnyardgrass [2]; [7]) | Plant response rating, Surinam Grass (Surinam grass; [9]) | Plant response rating, Velvetleaf (velvetleaf; [7])
0: Blackgrass plant response rating (blackgrass)
70: Cocklebur plant response rating (cocklebur; [6]) | Plant response rating, Barnyardgrass (barnyardgrass [2]; [4]) | Plant response rating, Crabgrass, Large (large crabgrass; [4]) | Plant response rating, Velvetleaf (velvetleaf; [4]) | Rice plant response rating (rice) | Plant response rating, Morningglory (morningglory; [9])
30: Plant response rating, Corn (corn; [9]) | Plant response rating, Foxtail, Giant (giant foxtail; [4]) | Plant response rating, Cocklebur (cocklebur; [9]) | Morningglory plant response rating (morningglory; [8])
50: Plant response rating, Surinam Grass (Surinam grass; [7]) | Velvetleaf plant response rating (velvetleaf; [8]) | Plant response rating, Morningglory (morningglory; [7])
20: Plant response rating, Corn (corn; [4]) | Plant response rating, Blackgrass (blackgrass) | Plant response rating, Wheat (wheat) | Crabgrass, Large plant response rating (large crabgrass; [6])
90: Ducksalad plant response rating (ducksalad) | Plant response rating, Foxtail, Giant (giant foxtail; [7]) | Plant response rating, Cocklebur (cocklebur; [4]) | Plant response rating, Barnyardgrass (barnyardgrass [2]; [9]) | Lambsquarters plant response rating (lambsquarters; [8]) | Sedge, Umbrella plant response rating [3]
100: Plant response rating, Foxtail, Giant (giant foxtail; [9]) | Plant response rating, Crabgrass, Large (large crabgrass; [9]) | Plant response rating, Crabgrass, Large (large crabgrass; [7]) | Plant response rating, Lambsquarters (lambsquarters; [9]) | Plant response rating, Lambsquarters (lambsquarters; [4]) | Plant response rating, Lambsquarters (lambsquarters; [7]) | Plant response rating, Velvetleaf (velvetleaf; [9]) | Plant response rating, Morningglory (morningglory; [4])

CC(=NO)c1cccc(NC(=O)c2cc(C(C)(C)C)nn2CC(F)(F)F)c1 [Compound 112]
80: Ducksalad plant response rating (ducksalad) | Sedge, Umbrella plant response rating [3]
50: Barnyardgrass plant response rating (barnyardgrass [1]) | Barnyardgrass plant response rating (barnyardgrass [2]; [6]) | Plant response rating, Barnyardgrass (barnyardgrass [2]; [7]) | Plant response rating, Velvetleaf (velvetleaf; [9])
0: Plant response rating, Corn (corn; [9]) | Plant response rating, Corn (corn; [7]) | Plant response rating, Cocklebur (cocklebur; [9]) | Plant response rating, Cocklebur (cocklebur; [7]) | Plant response rating, Lambsquarters (lambsquarters; [7]) | Plant response rating, Velvetleaf (velvetleaf; [7]) | Plant response rating, Morningglory (morningglory; [7])
60: Cocklebur plant response rating (cocklebur; [6]) | Plant response rating, Morningglory (morningglory; [9])
70: Plant response rating, Barnyardgrass (barnyardgrass [2]; [9]) | Plant response rating, Barnyardgrass (barnyardgrass [2]; [4]) | Plant response rating, Velvetleaf (velvetleaf; [4]) | Rice plant response rating (rice)
10: Plant response rating, Foxtail, Giant (giant foxtail; [7])
30: Plant response rating, Foxtail, Giant (giant foxtail; [4]) | Plant response rating, Wheat (wheat) | Plant response rating, Crabgrass, Large (large crabgrass; [4]) | Velvetleaf plant response rating (velvetleaf; [8]) | Plant response rating, Morningglory (morningglory; [4])
20: Plant response rating, Foxtail, Giant (giant foxtail; [9]) | Foxtail, Giant plant response rating (giant foxtail; [6]) | Plant response rating, Blackgrass (blackgrass) | Blackgrass plant response rating (blackgrass) | Wheat plant response rating (wheat) | Plant response rating, Surinam Grass (Surinam grass; [9]) | Plant response rating, Surinam Grass (Surinam grass; [4]) | Surinam Grass plant response rating (Surinam grass; [8]) | Plant response rating, Surinam Grass (Surinam grass; [7]) | Crabgrass, Large plant response rating (large crabgrass; [6]) | Plant response rating, Crabgrass, Large (large crabgrass; [7]) | Morningglory plant response rating (morningglory; [8])
40: Plant response rating, Corn (corn; [4]) | Corn plant response rating (corn; [6])
100: Plant response rating, Cocklebur (cocklebur; [4]) | Plant response rating, Lambsquarters (lambsquarters; [4])
90: Plant response rating, Crabgrass, Large (large crabgrass; [9]) | Plant response rating, Lambsquarters (lambsquarters; [9]) | Lambsquarters plant response rating (lambsquarters; [8])
